One data set deals with SW620 cells. As to the kind of experiment: Effect on growth of SW620 cells (cell counting, trypan blue). Format: cell-based, Human. To be noted: for IC50: SW620 colorectal carcinoma cells, 48 h treatment, 0.2% FBS, cumulative concentration response curve. As for the experimental part: Human SW620 colorectal carcinoma cells were obtained from the American Type Culture Collection (ATCC) and maintained in Leitbovitz's L-15 medium containing 10% FBS, 10 mM HEPES, 2.2 g/L Na2C03 and 10 units/ml penicillin, 100 μg/ml streptomycin. Cells were grown in a 5% CO2 incubator at 37° C. A predefined number of SW620 cells were allowed to grow in 24 wells plates (1×10^4 cells/well) for 3 days until cells reached 80% confluence. Then, cells were starved in Leitbovitz's medium without FBS for 8 h. Then, the culture medium was replaced with Leitbovitz+0.2% FBS and different concentrations of MAG-DHA, MAG-EPA or MAG-DPA (0.1, 0.3, 1, 3, 10, 30 and 100 μM) were added to each well. Culture media were changed every 24 h and cells were treated for 48 h. After 48, the medium was removed from the culture plates and 0.05% trypsing EDTA was used to detach the cells from the surface of the culture plates. The harvested cells were counted, both the viable and dead ones, using a Countess Automated Cell Counter (Invitrogen Inc.). Briefly, for each condition an appropriated cell dilution was prepared from the harvested cells and an aliquot was mixed with an equal volume of 0.4% trypan blue, and 10 μl was transferred into each side of a Countess™ chamber slide. All concentrations tested were performed in triplicata and were representative of 5 independent experiment.
FIG. 2 represents an in vitro cumulative concentration response curves (CCRC) of MAG-DHA, MAG-EPA and MAG-DPA ([…]) on SW620 cell growth.

The test system of data set [1] is A549 human cancer cell line. The data set can be described thus: In vivo tumor xenograft experiment: tumor tissue fatty acid composition after oral MAG-DHA. The settings on record: A549 xenografts in female CD-1 nude mice; per os 618 mg/kg daily for 48 days; tumors harvested 24 hours after treatment completion; HPLC-MS. The procedure: Female CD-1 nude mice were obtained from Charles River Laboratories (Montreal, Qc, Canada). All studies involving mice were approved by the institutional animal care committee (Protocol: #237-10). Human A549 xenografts were established in 4-week-old female CD-1 nude mice. Mice were inoculated with 0.2 ml of a solution of 1×10^6 A549 cells subcutaneously on the right flank. Mice were randomly assigned into 3 groups, control (untreated), corn oil and MAG-DHA (CA2672513, CA2677670) treated (n=6 per group). Corn oil and MAG-DHA were administrated per os (618 mg/kg) daily following cell inoculation. Treatments were continued for 48 days. Mice were sacrificed when tumor volume reached ≈1.5 cm3 in the control group. Tumor tissues were harvested 24 hours after treatment completion. Tumor tissue fatty acids compositions were measured using a high-performance liquid chromatography (HPLC)-MS method [Gagne S and al. J Lipid Res 2007 January; 48(1):252-9] modified to detect complete fatty acid composition. Data were acquired in SIM mode corresponding to the following fatty acids: C20:4 (AA), C20:5 (EPA), C22:5 (DPA), C22:6 (DHA). The linear calibration curves were obtained in the concentration range of 2 to 500 μg/ml
FIG. 1 represents the fatty acids compositions of tumors after MAG-DHA oral supplementation.

What is called IC50 is the concentration at which inhibition is half-maximal. A low value points to inhibition by little substance.

SMILES strings stand for the structures.

Turning to `CC/C=C\C/C=C\C/C=C\C/C=C\C/C=C\CCCCCC(=O)OCC(O)CO` (stereo not drawn) [MAG-DHA, sn1(3)-all-cis-4,7,10,13,16,19-docosahexaenoylglyceride], the IC50 with SW620 cells turned out to be 2900 nM. Besides, in data set [1], the “fatty acids compositions of tumors (EPA, DHA, DPA) compared to control and corn oil groups” value is “significant increase in EPA, DHA and DPA”. Turning to `CC/C=C\C/C=C\C/C=C\C/C=C\C/C=C\CCCCCC(=O)OCC(O)CO` (stereo not drawn) [MAG-DPA, sn1(3)-all-cis-7,10,13,16,19-docosapentaenoylglyceride], in the data set on SW620 cells (SW620 cell growth, comparison of IC50 values), the “times more active than MAG-EPA or MAG-DHA” value is listed as 10 times. This molecule registered an IC50 in the data set with SW620 cells of 370 nM. Molecule `CC/C=C\C/C=C\C/C=C\C/C=C\C/C=C\CCCC(=O)OCC(O)CO` (stereo not drawn) [MAG-EPA, sn1(3)-all-cis-5,8,11,14,17-eicosapentaenoylglyceride] returned an IC50 in the data set with SW620 cells (Homo sapiens, SW-620, 48 h) of 3200 nM.

For the origin of these results see patent publication US9447020B2, “Polyunsaturated fatty acid monoglycerides, derivatives, and uses thereof” (SCF PHARMA INC., priority 2013, dated 2016).
